The text below walks through data of the NIST ThermoML archive (doi:10.1021/je9006234).

Broadly, the mass density is the mass of a sample divided by its volume.

± gives the expanded uncertainty stated by the source.

The conditions of this data set: 298.15 K; 101.33 kPa; Liquid.
As to `Nc1ccccc1` [aniline], the mass density is reported as 1017.42 ± 0.19 kg/m3. As for `CCCCCCCCCCCCCCCC` [hexadecane], the figure is 773.19 ± 0.32 kg/m3; as for `CN(C)C=O` [dimethylformamide], 944.21 ± 0.23 kg/m3; as for `c1ccc2ncccc2c1` [quinoline], 1089.45 ± 0.31 kg/m3. The result for `c1cc[nH]c1` [pyrrole] reads 965.9 ± 2.9 kg/m3. The result for `c1ccc2[nH]ccc2c1` [1H-indole] reads 1216.68 ± 1.3 kg/m3.

As for `c1ccncc1` [pyridine], the mass density came to 978.25 ± 0.27 kg/m3.
